Measurements as given in patent US20120095052A1, “PAR-1 ANTAGONISM IN FED OR ANTACID-DOSED PATIENTS” (priority 2009, published 2012).
Read-outs that look alike come from different tables or passages of the source.

Experiment: Clinical study of the effect of food and antacid on pharmacokinetics after a single oral 40 mg tablet in healthy subjects
Type: in vivo, human
Details: for Tmax / Cmax / half-life / AUC: single 40 mg oral tablet; for Tmax: median; for Cmax / half-life / AUC: po, 40 mg, mean
Protocol: and or the bisulfate salt thereof in healthy subjects was studied in a clinical trial. The primary objective of the study was to evaluate the effect of food (standardized high-fat breakfast) and antacid (increased gastric pH) on the pharmacokinetics (PK) of
and or the bisulfate salt thereof administered orally as a 40 mg tablet. A secondary objective was to evaluate the effect of meal timing relative to fasting on the PK of
The study was designed as a randomized, open-label, single-dose, parallel-group, single-center study conducted in healthy young adults in conformance with Good Clinical Practice. Healthy male and female subjects between the ages of 18 and 45 years with a body mass index of 19-32 kg/m^2 were eligible for enrollment. Eligible subjects were randomly assigned to receive a single 40 mg dose of
basis on Days 7, 14, 21, 28, 35, and 42 (±1 day) after dosing. The bioanalytical assay was an LC-MS/MS assay, LLOQ=1.00 ng/mL.

[1] = 40 mg tablet immediately with food vs fasted
[2] = 1 hr after food vs fasted, 40 mg tablet
[3] = 2 hr after food vs fasted, 40 mg tablet
[4] = Fed (immediately with food) vs fasted, 40 mg tablet
[5] = antacid co-administration vs alone, fasted subjects
[6] = fasted subjects, with antacid vs alone, 40 mg tablet

increase of peak plasma concentration (Cmax) [1]: 31%
increase of systemic exposure (AUC[l]) [1]: 43%
Tmax (1 hour after food): 0.083 days
Ratio Estimate Fed vs Fasted, AUC(I) (relative bioavailability) [2]: 143
Ratio Estimate Fed vs Fasted, Cmax (relative bioavailability) [2]: 117
Tmax (2 hours after food): 0.083 days
Ratio Estimate Fed vs Fasted, AUC(I) (relative bioavailability) [3]: 127
Ratio Estimate Fed vs Fasted, Cmax (relative bioavailability) [3]: 137
Tmax (Fasted with antacid): 0.083 days
Ratio Estimate Fed vs Fasted, AUC(I) (relative bioavailability) [4]: 143
Ratio Estimate Fed vs Fasted, Cmax (relative bioavailability) [4]: 131
reduction of peak plasma concentration (Cmax) [5]: 38%
reduction of systemic exposure (AUC[l]) [5]: 15%
Cmax (both sexes, human, plasma, 1 hour after food (high-fat breakfast)): 298 ng/mL
half-life (both sexes, human, plasma, 1 hour after food, n = 9): 12 days
AUC (both sexes, human, plasma, 1 hour after food, n = 9, read-out: AUC(I)): 26800 ng·h/mL
AUC (both sexes, human, plasma, 1 hour after food, read-out: AUC(tf)): 23200 ng·h/mL
Cmax (both sexes, human, plasma, 2 hours after food (high-fat breakfast)): 355 ng/mL
half-life (both sexes, human, plasma, 2 hours after food, n = 9): 10.1 days
AUC (both sexes, human, plasma, 2 hours after food, n = 9, read-out: AUC(I)): 23400 ng·h/mL
AUC (both sexes, human, plasma, 2 hours after food, read-out: AUC(tf)): 22400 ng·h/mL
Cmax (both sexes, human, plasma, Fasted with antacid (20 mL Gaviscon extra-strength liquid)): 165 ng/mL
half-life (both sexes, human, plasma, Fasted with antacid, n = 18): 10.2 days
AUC (both sexes, human, plasma, Fasted with antacid, n = 18, read-out: AUC(I)): 15800 ng·h/mL
AUC (both sexes, human, plasma, Fasted with antacid, read-out: AUC(tf)): 15000 ng·h/mL
Cmax (both sexes, human, plasma, Fasted without antacid (after 10-hour fast), healthy subjects): 262 ng/mL
half-life (both sexes, human, plasma, Fasted without antacid, healthy subjects, n = 19): 10 days
AUC (both sexes, human, plasma, Fasted without antacid, healthy subjects, n = 19, read-out: AUC(I)): 18400 ng·h/mL
AUC (both sexes, human, plasma, Fasted without antacid, healthy subjects, read-out: AUC(tf)): 16800 ng·h/mL
half-life (both sexes, human, plasma, Fed (immediately with food), n = 18): 10.9 days
AUC (both sexes, human, plasma, Fed (immediately with food), n = 18, read-out: AUC(I)): 26600 ng·h/mL
AUC (both sexes, human, plasma, Fed (immediately with food), read-out: AUC(tf)): 22800 ng·h/mL
Cmax (both sexes, human, plasma, Fed (within 5 minutes of completing standardized high-fat breakfast)): 347 ng/mL
Tmax (both sexes, human, plasma, Fed (immediately with food), read-out: Tmax): 0.125 days
Ratio Estimate with vs without Antacid, AUC(I) (relative bioavailability) [6]: 85
Ratio Estimate with vs without Antacid, Cmax (relative bioavailability) [6]: 62
SMILES: CCOC(=O)N[C@@H]1CC[C@@H]2[C@@H](C1)C[C@H]1C(=O)O[C@H](C)[C@H]1[C@H]2/C=C/c1ccc(-c2cccc(F)c2)cn1 [SCH 530348, ethyl [(R1R,3aR,4aR,6R,8aR,9S,9aS)-9-[(E)-2-[5-(3-fluorophenyl)-2-pyridinyl]ethenyl]-dodecahydro-1-methyl-3-oxonaphtho[2,3-c]furan-6-yl] carbamate]
